According to patent publication US20250213572A1, “TYK2 INHIBITORS AND USES THEREOF” (Takeda Pharmaceutical Company Limited, priority 2022, published 2025):
Entries after “also recorded” stand apart in the source; their conditions may differ. Marks after values point to notes of the source that are not given here.

Experiments:
[1] = Phase 2b study in plaque psoriasis (Example 4): safety
[2] = test system: hepatocytes; test: Hepatocyte predicted clearance (Hepatopac low turnover assay), human; type: in vitro ADME

Compound: CNc1cc(Nc2cccn(-c3ccccn3)c2=O)nc2c(C(=O)N[C@@H]3CC[C@H]3OC)cnn12 [Compound 1, N-((1R,2R)-2-methoxycyclobutyl)-7-(methylamino)-5-((2-oxo-2H-[1,2′-bipyridin]-3-yl)amino)pyrazolo[1,5-a]pyrimidine-3-carboxamide]
- kind of adverse event leading to drug discontinuation ([1]; 2 mg): Lymphocyte count decreased (2 mg)
- AEs ([1]; 2 mg QD): 31 (62) Number of patients (percent)
- AEs leading to discontinuation ([1]; 2 mg QD): 1 (2) Number of patients (percent)
- ALT elevation, CTCAE Grade ≥3 ([1]; 2 mg QD): 0 Number of patients (percent)
- AST elevation, CTCAE Grade ≥3 ([1]; 2 mg QD): 0 Number of patients (percent)
- Acne ([1]; 2 mg QD): 0 Number of patients (percent)
- Acneiform dermatitis ([1]; 2 mg QD): 0 Number of patients (percent)
- Anemia, CTCAE Grade ≥3 ([1]; 2 mg QD): 0 Number of patients (percent)
- COVID-19 ([1]; 2 mg QD): 6 (12) Number of patients (percent)
- CPK elevation, CTCAE Grade ≥3 ([1]; 2 mg QD): 0 Number of patients (percent)
- Cholesterol elevation, Wk 12, CTCAE Grade ≥3 ([1]; 2 mg QD): 0 Number of patients (percent)
- Creatinine elevation, CTCAE Grade ≥3 ([1]; 2 mg QD): 0 Number of patients (percent)
- Deaths ([1]; 2 mg QD): 0 Number of patients (percent)
- Diarrhea ([1]; 2 mg QD): 3 (6) Number of patients (percent)
- Lymphopenia, CTCAE Grade ≥3 ([1]; 2 mg QD): 1 (2) Number of patients (percent)
- Serious AEs ([1]; 2 mg QD): 0 Number of patients (percent)
- Thrombocytopenia, CTCAE Grade ≥3 ([1]; 2 mg QD): 0 Number of patients (percent)
- Triglyceride elevation, Wk 12, CTCAE Grade ≥3 ([1]; 2 mg QD): 1 (2) Number of patients (percent)
- Worsening of proteinuria, CTCAE Grade ≥3 ([1]; 2 mg QD): 0 Number of patients (percent)
- kind of adverse event leading to drug discontinuation ([1]; 5 mg): Tachycardia and syncope (5 mg)
- AEs ([1]; 5 mg QD): 28 (54) Number of patients (percent)
- AEs leading to discontinuation ([1]; 5 mg QD): 1 (2) Number of patients (percent)
- ALT elevation, CTCAE Grade ≥3 ([1]; 5 mg QD): 0 Number of patients (percent)
- AST elevation, CTCAE Grade ≥3 ([1]; 5 mg QD): 0 Number of patients (percent)
- Acne ([1]; 5 mg QD): 1 (2) Number of patients (percent)
- Acneiform dermatitis ([1]; 5 mg QD): 1 (2) Number of patients (percent)
- Anemia, CTCAE Grade ≥3 ([1]; 5 mg QD): 0 Number of patients (percent)
- COVID-19 ([1]; 5 mg QD): 4 (8) Number of patients (percent)
- CPK elevation, CTCAE Grade ≥3 ([1]; 5 mg QD): 0 Number of patients (percent)
- Cholesterol elevation, Wk 12, CTCAE Grade ≥3 ([1]; 5 mg QD): 0 Number of patients (percent)
- Creatinine elevation, CTCAE Grade ≥3 ([1]; 5 mg QD): 0 Number of patients (percent)
- Deaths ([1]; 5 mg QD): 0 Number of patients (percent)
- Diarrhea ([1]; 5 mg QD): 1 (2) Number of patients (percent)
- Lymphopenia, CTCAE Grade ≥3 ([1]; 5 mg QD): 0 Number of patients (percent)
- Serious AEs ([1]; 5 mg QD): 0 Number of patients (percent)
- Thrombocytopenia, CTCAE Grade ≥3 ([1]; 5 mg QD): 0 Number of patients (percent)
- Triglyceride elevation, Wk 12, CTCAE Grade ≥3 ([1]; 5 mg QD): 0 Number of patients (percent)
- Worsening of proteinuria, CTCAE Grade ≥3 ([1]; 5 mg QD): 0 Number of patients (percent)
- kind of adverse event leading to drug discontinuation ([1]; 15 mg): Pericardial effusion and pleural effusion (15 mg)
- AEs ([1]; 15 mg QD): 28 (53) Number of patients (percent)
- AEs leading to discontinuation ([1]; 15 mg QD): 1 (2) Number of patients (percent)
- ALT elevation, CTCAE Grade ≥3 ([1]; 15 mg QD): 0 Number of patients (percent)
- AST elevation, CTCAE Grade ≥3 ([1]; 15 mg QD): 0 Number of patients (percent)
- Acne ([1]; 15 mg QD): 3 (6) Number of patients (percent)
- Acneiform dermatitis ([1]; 15 mg QD): 1 (2) Number of patients (percent)
- Anemia, CTCAE Grade ≥3 ([1]; 15 mg QD): 0 Number of patients (percent)
- COVID-19 ([1]; 15 mg QD): 6 (11) Number of patients (percent)
- CPK elevation, CTCAE Grade ≥3 ([1]; 15 mg QD): 1 (2) Number of patients (percent)
- Cholesterol elevation, Wk 12, CTCAE Grade ≥3 ([1]; 15 mg QD): 0 Number of patients (percent)
- Creatinine elevation, CTCAE Grade ≥3 ([1]; 15 mg QD): 0 Number of patients (percent)
- Deaths ([1]; 15 mg QD): 0 Number of patients (percent)
- Diarrhea ([1]; 15 mg QD): 1 (2) Number of patients (percent)
- Lymphopenia, CTCAE Grade ≥3 ([1]; 15 mg QD): 0 Number of patients (percent)
- Serious AEs ([1]; 15 mg QD): 1 (2) Number of patients (percent)
- Thrombocytopenia, CTCAE Grade ≥3 ([1]; 15 mg QD): 0 Number of patients (percent)
- Triglyceride elevation, Wk 12, CTCAE Grade ≥3 ([1]; 15 mg QD): 1 (2) Number of patients (percent)
- Worsening of proteinuria, CTCAE Grade ≥3 ([1]; 15 mg QD): 0 Number of patients (percent)
- kind of adverse event leading to drug discontinuation ([1]; 30 mg): CPK increased (30 mg); also recorded: One additional subject (30 mg) permanently discontinued study drug due to an AE of hypertensive urgency, but remained in study
- AEs ([1]; 30 mg QD): 31 (60) Number of patients (percent)
- AEs leading to discontinuation ([1]; 30 mg QD): 2 (4) Number of patients (percent)
- ALT elevation, CTCAE Grade ≥3 ([1]; 30 mg QD): 0 Number of patients (percent)
- AST elevation, CTCAE Grade ≥3 ([1]; 30 mg QD): 0 Number of patients (percent)
- Acne ([1]; 30 mg QD): 2 (4) Number of patients (percent)
- Acneiform dermatitis ([1]; 30 mg QD): 3 (6) Number of patients (percent)
- Anemia, CTCAE Grade ≥3 ([1]; 30 mg QD): 0 Number of patients (percent)
- COVID-19 ([1]; 30 mg QD): 7 (14) Number of patients (percent)
- CPK elevation, CTCAE Grade ≥3 ([1]; 30 mg QD): 1 (2) Number of patients (percent)
- Cholesterol elevation, Wk 12, CTCAE Grade ≥3 ([1]; 30 mg QD): 0 Number of patients (percent)
- Creatinine elevation, CTCAE Grade ≥3 ([1]; 30 mg QD): 0 Number of patients (percent)
- Deaths ([1]; 30 mg QD): 0 Number of patients (percent)
- Diarrhea ([1]; 30 mg QD): 0 Number of patients (percent)
- Lymphopenia, CTCAE Grade ≥3 ([1]; 30 mg QD): 0 Number of patients (percent)
- Serious AEs ([1]; 30 mg QD): 0 Number of patients (percent)
- Thrombocytopenia, CTCAE Grade ≥3 ([1]; 30 mg QD): 0 Number of patients (percent)
- Triglyceride elevation, Wk 12, CTCAE Grade ≥3 ([1]; 30 mg QD): 1 (2) Number of patients (percent)
- Worsening of proteinuria, CTCAE Grade ≥3 ([1]; 30 mg QD): 0 Number of patients (percent)
- CPK ([1]; FIG. 17E): shows some variability at 15 mg and 30 mg with large error bars
- Triglyceride elevation ([1]; FIG. 19B): minimal
- hematological parameters, mean lab values and changes from baseline ([1]; FIGS. 17A-17E, weeks 0-16): do not reveal adverse trends in cell counts
- hepatic and renal parameters, mean lab values and changes from baseline ([1]; FIGS. 18A-18E): do not reveal adverse trends for liver enzymes, creatinine or eGFR
- lipid parameters, mean lab values and changes from baseline ([1]; FIGS. 19A-19E): do not reveal adverse trends for cholesterol, HDL, or LDL
- Hep Clpred [2]: 0.69* mL/min/kg
